Legend:
[1] = (§1) The drug is tested on Z-004 corresponding to metagenome with ENA study accession number: PRJEB37062 and ENA sample accession number: ERS12561804 for biotransformation under anaerobic condition. The drug concentrations were measured over 9 timepoints collected between 0 and 24 hours of incubation by liquid-chromatography-coupled mass spectrometry (LC–MS); settings: 2 µM
[2] = (§2) The drug is tested on Z-022 corresponding to mouse gut metagenome with ENA study accession number: PRJEB37062 and ENA sample accession number: ERS12561821 for biotransformation under anaerobic condition. The drug concentrations were measured over 9 timepoints collected between 0 and 24 hours of incubation by liquid-chromatography-coupled mass spectrometry (LC–MS); settings: 2 µM
[3] = as §2, with “Z-029” for “Z-022”, “rat” for “mouse”, “ERS12561828” for “ERS12561821”; settings: 2 µM
[4] = as §2, with “WLS-010” for “Z-022”, “human” for “mouse”, “ERS12561743” for “ERS12561821”; settings: 2 µM
[5] = as §2, with “Z-002” for “Z-022”, “rabbit” for “mouse”, “ERS12561802” for “ERS12561821”; settings: 2 µM
[6] = human gut metagenome, 24 h, 2 µM
[7] = as §1, with “Z-012” for “Z-004”, “ERS12561812” for “ERS12561804”; settings: 2 µM
[8] = human gut metagenome, 24 h, 2 µM; remark: listed apart in the source
[9] = as §2, with “WLS-082” for “Z-022”, “human” for “mouse”, “ERS12561751” for “ERS12561821”; settings: 2 µM
Further: call rule not given here.

Row | SMILES | Bacterial Biotransformation [1] | Bacterial Biotransformation [2] | Bacterial Biotransformation [3] | Bacterial Biotransformation [4] | Bacterial Biotransformation [5] | Bacterial Biotransformation [6] | Bacterial Biotransformation [7] | Bacterial Biotransformation [8] | Bacterial Biotransformation [9]
1 | CSc1ccc2c(c1)C(N1CCN(C)CC1)Cc1ccccc1S2.O=C(O)/C=C\C(=O)O (stereo unspecified) | Compound metabolized | Compound metabolized | Compound NOT metabolized | Compound metabolized | Compound metabolized | Compound NOT metabolized | Compound NOT metabolized | – | –
2 | CCN(CC)C(=O)C1(c2ccccc2)CC1CN (stereo unspecified) | Compound NOT metabolized | Compound NOT metabolized | Compound NOT metabolized | Compound NOT metabolized | Compound NOT metabolized | Compound NOT metabolized | Compound NOT metabolized | Compound NOT metabolized | Compound NOT metabolized
3 | COc1ccc(/C=C/C(=O)Nc2ccccc2C(=O)O)cc1OC | Compound NOT metabolized | Compound metabolized | Compound NOT metabolized | Compound metabolized | Compound metabolized | Compound NOT metabolized | Compound NOT metabolized | Compound NOT metabolized | Compound metabolized
4 | Nc1nc(NC2CC2)c2ncn([C@H]3C=C[C@@H](CO)C3)c2n1.Nc1nc(NC2CC2)c2ncn([C@H]3C=C[C@@H](CO)C3)c2n1.O=S(=O)(O)O [ABACAVIR SULFATE] | Compound metabolized | Compound metabolized | Compound NOT metabolized | Compound NOT metabolized | Compound metabolized | Compound NOT metabolized | Compound NOT metabolized | Compound metabolized | Compound NOT metabolized
5 | CCN(CC)CCNC(=O)c1ccc(NC(C)=O)cc1 [ACECAINIDE] | Compound NOT metabolized | Compound NOT metabolized | Compound NOT metabolized | Compound NOT metabolized | Compound metabolized | Compound NOT metabolized | Compound NOT metabolized | Compound NOT metabolized | Compound NOT metabolized
6 | O=C1CN2Cc3c(ccc(Cl)c3Cl)N=C2N1 [ANAGRELIDE] | Compound NOT metabolized | Compound metabolized | Compound NOT metabolized | Compound metabolized | Compound NOT metabolized | Compound NOT metabolized | Compound NOT metabolized | Compound metabolized | Compound metabolized
7 | CN(C)C(=O)Oc1cc(OC(=O)N(C)C)cc(C(O)CNC(C)(C)C)c1 (stereo unspecified) [BAMBUTEROL] | Compound metabolized | Compound metabolized | Compound NOT metabolized | Compound NOT metabolized | Compound metabolized | Compound NOT metabolized | Compound NOT metabolized | Compound metabolized | Compound NOT metabolized
8 | CCc1oc2ccccc2c1C(=O)c1cc(Br)c(O)c(Br)c1 [BENZBROMARONE] | Compound NOT metabolized | Compound NOT metabolized | Compound NOT metabolized | Compound metabolized | Compound metabolized | Compound metabolized | Compound NOT metabolized | Compound metabolized | Compound metabolized
9 | CC(C)C[C@H]1C(=O)N2CCC[C@H]2[C@]2(O)O[C@](NC(=O)[C@@H]3C=C4c5cccc6[nH]c(Br)c(c56)C[C@H]4N(C)C3)(C(C)C)C(=O)N12.CS(=O)(=O)O [BROMOCRIPTINE MESYLATE] | Compound metabolized | Compound metabolized | Compound metabolized | Compound metabolized | Compound metabolized | Compound metabolized | Compound metabolized | Compound metabolized | Compound metabolized
10 | CC(NC(C)(C)C)C(=O)c1cccc(Cl)c1 (stereo unspecified) [BUPROPION] | Compound NOT metabolized | Compound NOT metabolized | Compound NOT metabolized | – | Compound NOT metabolized | Compound NOT metabolized | Compound NOT metabolized | Compound NOT metabolized | Compound NOT metabolized
11 | CCOC(=O)[C@H](CCc1ccccc1)N[C@@H](C)C(=O)N1CCC[C@H]1C(=O)O.O=C(O)/C=C\C(=O)O [ENALAPRIL MALEATE] | Compound NOT metabolized | Compound NOT metabolized | Compound NOT metabolized | Compound NOT metabolized | Compound metabolized | Compound NOT metabolized | – | Compound NOT metabolized | Compound NOT metabolized
12 | CCc1cccc2c3c([nH]c12)C(CC)(CC(=O)O)OCC3 (stereo unspecified) [ETODOLAC] | Compound NOT metabolized | Compound NOT metabolized | Compound NOT metabolized | Compound metabolized | Compound NOT metabolized | Compound metabolized | Compound NOT metabolized | Compound metabolized | –
13 | CN1[C@@H]2CC[C@H]1C[C@@H](OC(=O)[C@H](CO)c1ccccc1)C2 [HYOSCYAMINE] | Compound NOT metabolized | Compound NOT metabolized | Compound NOT metabolized | – | – | – | Compound NOT metabolized | Compound metabolized | –
14 | C#C[C@]1(OC(C)=O)CC[C@H]2[C@@H]3CCC4=CC(=O)CC[C@@H]4[C@H]3CC[C@@]21C [NORETHINDRONE ACETATE] | – | Compound metabolized | Compound metabolized | Compound metabolized | Compound metabolized | Compound metabolized | – | – | –
15 | CC(=O)O[C@H]1C(=O)[C@@]2(C)[C@H]([C@H](OC(=O)c3ccccc3)[C@]3(O)C[C@H](OC(=O)[C@H](O)[C@@H](NC(=O)c4ccccc4)c4ccccc4)C(C)=C1C3(C)C)[C@]1(OC(C)=O)CO[C@@H]1C[C@@H]2O [PACLITAXEL] | Compound NOT metabolized | Compound metabolized | Compound NOT metabolized | Compound metabolized | Compound metabolized | Compound NOT metabolized | Compound NOT metabolized | – | Compound metabolized
16 | COc1ccc(Cc2nccc3cc(OC)c(OC)cc23)cc1OC [PAPAVERINE] | Compound NOT metabolized | Compound metabolized | Compound NOT metabolized | Compound metabolized | Compound metabolized | Compound metabolized | Compound NOT metabolized | Compound metabolized | –
17 | COc1cc(NC(C)CCCN)c2ncccc2c1.O=P(O)(O)O.O=P(O)(O)O (stereo unspecified) [PRIMAQUINE PHOSPHATE] | Compound NOT metabolized | Compound NOT metabolized | Compound NOT metabolized | – | Compound NOT metabolized | Compound NOT metabolized | Compound NOT metabolized | Compound NOT metabolized | Compound metabolized
18 | CC(=O)OCC(=O)NCCCOc1cccc(CN2CCCCC2)c1 [ROXATIDINE ACETATE] | Compound metabolized | Compound metabolized | Compound metabolized | Compound metabolized | – | Compound metabolized | Compound metabolized | Compound metabolized | Compound metabolized
19 | CN[C@H]1CC[C@@H](c2ccc(Cl)c(Cl)c2)c2ccccc21 [SERTRALINE] | Compound metabolized | Compound NOT metabolized | Compound NOT metabolized | – | Compound NOT metabolized | Compound metabolized | Compound metabolized | Compound NOT metabolized | Compound metabolized
20 | CCCCCNC(=N)N/N=C/c1c[nH]c2ccc(OC)cc12.O=C(O)/C=C\C(=O)O [TEGASEROD MALEATE] | Compound NOT metabolized | Compound NOT metabolized | Compound NOT metabolized | Compound NOT metabolized | Compound NOT metabolized | Compound NOT metabolized | Compound NOT metabolized | – | Compound metabolized

From ChEMBL document CHEMBL5724914, “Linking interpersonal differences in gut microbiota composition and drug biotransformation activity” (2024)
